The subject of one test is A375 Sensitive cells. Description: Viability test, trypan blue exclusion, A375 Sensitive cells. In kind it is cell-based, human. The settings on record: for viability at 5 µM / viability at 10 µM: viable cells as percentage of DMSO control. The method, boiled down:
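A375 (B-Raf, CDKN2A, PTEN mutant) cells were exposed to compounds at 5.0 or 10 μM for 24 or 48 hr; CRO15 also at 0.5–50 μM for 48 hr or 5 μM for 2–48 hr; DMSO control. Viable cells were counted by trypan blue exclusion, as % of control. Three experiments in triplicate.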

The next test deals with WM9 cells. Description: Resistance development in WM9 cells after 8 weeks of drug exposure. In kind it is cell-based, human. The settings on record: 8 weeks increasing concentrations, then 10 μM 48 hrs; FIG. 7B. From the text: (§1) Different melanoma cell lines were purchased from the American Tissue Culture Collection: A375 and WM9 cells are mutated on B-Raf, CDKN2A and PTEN proteins; SKmel28 cells are mutated on B-Raf and P53 proteins; 1205Lu cells are mutated on B-Raf and PTEN proteins; G-361 cells are mutated on B-Raf and CDKN2A proteins; C8161 cells are mutated on B-Raf and K-Ras proteins; WM3912 cells are mutated on B-Raf and CDKN2A proteins; MeWo cells are mutated on P53 and CDKN2A proteins; WM3918 presents no mutations on characteristic proteins.
(§2) For trypan blue staining, […] of cells (melanoma and normal human cells) were aseptically transferred to a 1.5 mL clear Eppendorf tube and incubated for 3 min at room temperature with an equal volume of 0.4% trypan blue solution. Viable cells were counted and the results are expressed as the percentage of the value of control cells. All the experiments are performed 3 times in triplicate.
To study weither melanoma cells WM9 would develop resistance to CRO15, these cells were kept in culture during 8 weeks in presence of increasing concentrations of either, DMSO (control), PLX4032, CRO15 or MTF255. The starting concentration was 0.2 μM.
Along with non-treated WM9S (naive cells), drug-treated WM9S were then stimulated with 10 μM of each drug during 48 hrs. Viable cells were counted using the trypan blue dye exclusion method. […]

The subject of a further test is murine melanoma BP cells. Description: Murine melanoma BP cells allografted into C57BL6 mice. The settings on record: BP cells allograft, immunocompetent C57BL/6, 0.7 mg/mouse/day intraperitoneal; FIG. 7A. In kind it is in vivo, C57BL6/J mice. How it is done:
In Vivo Murine Cancer Model Animal experiments were carried out in accordance with the Declaration of Helsinki and were approved by a local ethical committee CIEPAL (Comite Institutionnel d'Ethique Pour l'Animal de Laboratoire-Azur). Female C57BL6/J mice were obtained at 5 weeks of age from Envigo Laboratory (Gannat, France). Mice were inoculated subcutaneously with BP melanoma cells (1×10^6 cells/mouse). After tumor apparition (+5 days), animals received intraperitoneal injection of Labrafil (vehicle) or CRO15 (0.7 mg/mouse/day). The growth tumor curves were determined by measuring the tumor volume using the equation V=(L*W2)/2, (V=tumor volume, W=tumor width, L=tumor length). At the end of the experiment, mice were euthanized by cervical dislocation.

Test [1] concerns A375 resistant melanoma cells. Description: Viability test of CRO15 on resistant melanoma cells. The settings on record: 48 hr, FIG. 4A. In kind it is cell-based, human. How it is done: Resistant melanoma cell lines A375 and SKMel28 were a gift from Professor P. Marchetti and described in Corazao-Rozas et al. (2013). Cells were grown in RPMI 1640 or in DMEM supplemented with 10% of Foetal Calf Serum (FCS) and penicillin/streptomycin (100 U/ml/[…]) at 37° C. and 5% CO2.
as §2
A375 sensitive and resistant melanoma cells were treated with 5 μM of CRO15 for 48 hr or with 5 μM of PLX4032 for 48 hr or with DMSO (Control). At 48 hours, viable cells were counted using the trypan blue dye exclusion method. The results are normalized as percentages compare to the control and data means±SEM of three independent experiments performed in triplicate *p<0.05; **p<0.01; ***p<0.001.

Test [2] concerns Different melanoma cell lines with various mutations. Put plainly: Viability test with CRO15, melanoma cell lines with various mutations. In kind it is cell-based, human. The settings on record: 5 μM, 48 hours; FIG. 1C.
Text: as §1, §2
Different melanoma cell lines with various mutations, patient cells with various mutations and normal human cells, were treated with 5 μM of CRO15 for 48 hours or DMSO (Control). At the end of stimulation, viable cells were counted using the trypan blue dye exclusion method. The results are normalized as percentages compare to the control and data means±SEM of three independent experiments performed in triplicate *p<0.05; **p<0.01; ***p<0.001. […]

Like-named read-outs stand apart in the source and are kept apart here.

As for `Nc1nc(Nc2ccccc2SSc2ccccc2Nc2nc(N)nc(C(Cl)(Cl)Cl)n2)nc(C(Cl)(Cl)Cl)n1` [CRO15, N2,N2′-(disulfanediylbis(2,1-phenylene))bis(6-(trichloromethyl)-1,3,5-triazine-2,4-diamine)], the “decrease of the viability compared with PLX4032” value is “more important with CRO15 than with PLX4032” in the test on A375 Sensitive cells (5 μM each, 48 hr, FIG. 1A); “more important with CRO15 than with PLX4032” in test [1] (5 μM each, A375 sensitive and resistant). In addition, the “cell viability of A375 S cells, kinetic” value in the test on A375 Sensitive cells (5 μM, 2 hr to 48 hr, FIG. 1A) is recorded as “induces a decrease of the viability of melanoma cells”. The “cell viability, A375 sensitive melanoma cells” value with A375 Sensitive cells (5 μM, 48 hr, FIG. 4A) is reported as “induces a decrease of the cell viability”. In addition, the “dose-response on melanoma cells viability” value in the test with A375 Sensitive cells (0.5-50 μM, 48 hr, FIG. 1B) was “dose-response relationship”. The viability at 5 µM was 36% with A375 Sensitive cells (Homo sapiens, A-375, 5 μM, 24 h, read-out: Viab A375 5 μM/ 24 h) and 27% in the test on A375 Sensitive cells (Homo sapiens, A-375, 5 μM, 48 h, read-out: Viab A375 5 μM/ 48 h). The viability at 10 µM in the test on A375 Sensitive cells (Homo sapiens, A-375, 24 h, read-out: Viab A375 10 μM/ 24 h) amounted to 23%; in the test with A375 Sensitive cells (Homo sapiens, A-375, 48 h, read-out: Viab A375 10 μM/ 48 h), 2.6%. The 50% inhibitory concentration (IC50) with A375 Sensitive cells (Homo sapiens, A-375, A375 Sensitive cells, 48 hr, read-out: IC50 of CRO15) was determined as 3.75 µM. For the same compound, the “cell viability of WM9 after 8 weeks of treatment and stimulation with the drug” value with WM9 cells is on record as “still able to induce cell death”. Besides, the “tumor growth (tumor volume)” value with murine melanoma BP cells is given as “no tumor growth”. Besides, in test [1] (5 μM), the “cell viability, A375 resistant melanoma cells” value is on record as “induces a decrease of the cell viability”. Also, in test [2], the “viability of different melanoma cell lines with various mutations” value is “induces a decrease of the viability”.

The record behind these values is patent publication US11440906B2, “Biguanide derivatives and their rearrangement products for use in the treatment of cancer” (CENTRE NATIONAL DE LA RECHERCHE SCIENTIFIQUE, priority 2017, dated 2022).
